Experimental data taken from patent US20140275711A1, “1-(Arylmethyl)-5,6,7,8-tetrahydroquinazolline-2,4-diones and Analogs and the Use Thereof” (Impact Therapeutics, Inc., priority 2011, published 2014).
Where two headings read alike, the source gives them in different places.

Columns and labels:
[1] = test system: BRCA-2 deficient CAPAN-1 human pancreatic cancer cells; assay: Cell growth inhibition of BRCA-2 deficient CAPAN-1 cells, MTT based cell viability assay; details: read-out: Growth inhibition of CAPAN-1 cells by compounds (IC50)
Experimental: BRCA-2 deficient CAPAN-1 human pancreatic cancer cells were used to test the growth inhibiting activity of substituted 1-(arylmethyl)-5,6,7,8-tetrahydroquinazoline-2,4(1H,3H)-diones. Briefly, CAPAN-1 cells are grown and maintained in IMEM medium supplemented with 20% FBS. The assay takes 10 days to finish. On day 1, 6000 CAPAN-1 cells are seeded to each well of a 96-well plate. The cells are incubated at 37° C. in a CO2 cell culture incubator overnight. […] Ten-fold compound solutions were made by mixing 10 μl DMSO serial dilution solutions with 90 μl fresh growth medium. The cell culture medium was removed and 180 μl fresh media with FBS and 20 μl of compound solutions were added to each well. The final concentration of DMSO was 1%. Cells were then returned to the CO2 cell culture incubator and incubated at 37° C. for two days (day 3 and day 4). On day 5, the same procedure as what was done on day 2 was repeated. Cell culture medium was removed and fresh medium containing serial dilutions of compounds or reference compounds were added. Cells were returned to the CO2 cell culture incubator and incubated for two more days. On day 8, same procedure was repeated again and fresh medium containing the testing compounds or reference compounds were added and incubated for an additional 2 days. On day 10, 20 μl of MTT reagent (5 mg/ml) was added to each well of the cell culture plate and incubated for 4 h. The cell culture media was removed and 100 μl DMSO was added to each well. The 96-well cell culture plates were shaked horizontally for 10 min and readed in a Varioskan Flash plate reader (Thermo Fisher Scientific) at 520 and 690 nm. The obtained 520 nm absorbance readings substracting corresponding 690 nm reading were analyzed using a commercial graphic software (GraphPad Prism 5) and plotted against the Log scale of the compound concentrations.

[2] = test system: SW620 human colorectal cancer cells; assay: Potentiation of the growth inhibiting activity of MMS, MTT based cell viability assay; details: read-out: Compounds potentiate the growth inhibiting activity of MMS (IC50)
Experimental: The synergistic potentiation effect of PARP inhibitors on the growth inhibiting activity of DNA damaging anticancer drugs such as methyl methanesulphonate (MIMS) were measured with SW620 human colorectal cancer cells (Shanghai Cancer Institute) using a MTT based cell viability assay. SW620 cells were grown and maintained in RPMI1640 (Gibco) medium supplemented with 10% FBS (Hyclone). In the first day of experiment, 4000 cells were seeded to each well of a 96-well cell culture plate and incubated at 37° C. and 5% CO2 in a cell culture incubator overnight. In the next day, the cell culture medium was removed. […] The serial dilutions of the reference compounds and the compounds to be tested were made with a 1:3 and 1:10 fashion in DMSO. The 10-fold concentrated solutions of these compounds were made by mixing 10 μl of the serial dilutions in DMSO with 90 μl fresh medium. The final concentration of DMSO in the medium was 1%. The cells were incubated at 37° C. in 5% CO2 cell culture incubator for additional 5 days (120 hours). Afterwards, the 96-well cell culture plate was taken out and 20 μl of MTT solution was added to each well and incubated at 37° C. for 4 h. The medium was removed and 100 μl DMSO was added to each well. The 96-well cell culture plates were shaked adequately for 10 min and readed in a Varioskan Flash plate reader (Thermo Fisher Scientific) at 520 and 690 nm. The data were analyzed by Prism 5 software (GraphPad). The obtained 520 nm absorbance readings substracting corresponding 690 nm reading were analyzed and plotted against the Log scale of the compound concentrations.

[3] = test system: Human breast cancer cell line T47D; assay: Potentiation of MMS induced apoptosis, cell based caspase-3 activity assay; details: read-out: Compounds potentiate the apoptosis inducing activity of MMS (EC50);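 further: Caspase-3 activity in cell lysates measured by fluorescence (RFU), EC50 fitted from sigmoidal curve of signal versus log compound concentration in presence of MMS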
Experimental: Human breast cancer cell line T47D (Nanjing KeyGEN Biotech. CO., LTD.) was used to determine the potentiation effect of PARP-1 inhibitors on the apoptosis inducing activity of DNA damaging anticancer drugs such as MMS. Intracellular caspase-3 activity was used to measure cell apoptosis. Briefly, T47D cells were grown in DMEM/F12 cell culture medium (Hyclone) supplemented with 0.2 U/ml insulin (Genview) and 10% FBS (Hyclone). A day before experiment, 20000 of T47D cells were seeded to each well of a 96-well cell culture plate and maintained at 37° C. and 5% CO2 in a cell culture incubator overnight. On the day of experiment, cell culture medium was removed. […] The serial dilutions of the compounds to be tested and the reference compounds were made in a 1:3 and 1:10 fashion in DMSO. The 10-fold compound solutions were made by mixing 10 μl DMSO serial dilution solutions with 90 μl fresh growth medium. Twenty four hours later, the cells in the 96-well plates were centrifuged at 1000 g for 5 min and the supernatants were removed. 50 μl lysis buffer (10 mM Tris, pH 7.5, 0.1M NaCl, 1 mM EDTA, 0.01% Triton X-100) was added to each well and the plates were shaked horizontally for 30 min at 4° C. After centrifugation at 1000 g at 4° C. for 10 min, 20 μl of supernatant was transferred from each well to a corresponding well in a 384-well black plate. […] The plates were shaked to uniformly mix the wells and incubated at 37° C. for 3 h. […] The caspase-3 activity induced by the compounds was expressed as a relative fluorescence unit (RFU). The obtained fluorescence readings were analyzed using a commercial graphic software (GraphPad Prism 5) and plotted against the Log value of the compound concentrations. The EC50 values were obtained by fitting the data points with the equation of Y (fluorescence reading)=minimal fluorescence reading+(maximal fluorescence reading−minimal fluorescence reading)/(1+10̂(LogEC50−LogC)), where C is the concentration of the testing compound. The EC50 values were obtained by fitting the data points with S-shaped dose response curve equation (GraphPad Software, Inc).

[4] = BRCA-2 deficient CAPAN-1 cells, 10 day assay, MTT
[5] = SW620 cells, medium containing 1.5 μg/ml MMS, 5 days (120 hours), MTT
[6] = T47D cells, 100 nM MMS, 24 hours, intracellular caspase-3 activity

O=C(c1cc(Cc2n[nH]c(=O)c3ccccc23)ccc1F)N1CCN(C(=O)C2CC2)CC1 [AZD2281, olaparib, reference compound]
IC50 ([1]; Homo sapiens, CAPAN-1, 240 h): 1070 nM | IC50 ([2]; Homo sapiens, SW-620, 120 h): 46 nM | EC50 ([3]; Homo sapiens, T47D, 24 h): 14 nM

O=C(c1cccc(Cn2c3c(c(=O)[nH]c2=O)CCCC3)c1)N1CCN(c2ncccn2)CC1 [Example 5, 1-(3-(4-(Pyrimidin-2-yl)piperazine-1-carbonyl)benzyl)-5,6,7,8-tetrahydroquinazoline-2,4(1H,3H)-dione]
IC50 ([1]; Homo sapiens, CAPAN-1, 240 h): 22 nM | IC50 ([2]; Homo sapiens, SW-620, 120 h): 15 nM | EC50 ([3]; Homo sapiens, T47D, 24 h): 3.5 nM

O=C(c1cccc(Cn2c3c(c(=O)[nH]c2=O)CCCC3)c1)N1CCN(C(=O)C2CCCC2)CC1 [Example 9, 1-(3-(4-(Cyclopentylcarbonyl)piperazine-1-carbonyl)benzyl)-5,6,7,8-tetrahydroquinazoline-2,4(1H,3H)-dione]
IC50 ([1]; Homo sapiens, CAPAN-1, 240 h): 107 nM | IC50 ([2]; Homo sapiens, SW-620, 120 h): 12 nM | EC50 ([3]; Homo sapiens, T47D, 24 h): 91 nM

O=C(c1cccc(Cn2c3c(c(=O)[nH]c2=O)CCCC3)c1)N1CCN(c2ccccn2)CC1 [Example 11, 1-(3-(4-(Pyridin-2-yl)piperazine-1-carbonyl)benzyl)-5,6,7,8-tetrahydroquinazoline-2,4(1H,3H)-dione]
IC50 ([1]; Homo sapiens, CAPAN-1, 240 h): 32 nM | IC50 ([2]; Homo sapiens, SW-620, 120 h): 6.9 nM | EC50 ([3]; Homo sapiens, T47D, 24 h): 31 nM

O=C(c1ccccc1)N1CCN(C(=O)c2cc(Cn3c4c(c(=O)[nH]c3=O)CCCC4)ccc2F)CC1 [Example 18, 1-(4-Fluoro-3-(4-benzoylpiperazine-1-carbonyl)benzyl)-5,6,7,8-tetrahydroquinazoline-2,4(1H,3H)-dione]
IC50 ([1]; Homo sapiens, CAPAN-1, 240 h): 35 nM | IC50 ([2]; Homo sapiens, SW-620, 120 h): 9.5 nM | EC50 ([3]; Homo sapiens, T47D, 24 h): 41 nM

O=C(c1cccs1)N1CCN(C(=O)c2cc(Cn3c4c(c(=O)[nH]c3=O)CCCC4)ccc2F)CC1 [Example 21, 1-(4-Fluoro-3-(4-(thiophene-2-carbonyl)piperazine-1-carbonyl)benzyl)-5,6,7,8-tetrahydroquinazoline-2,4(1H,3H)-dione]
IC50 ([1]; Homo sapiens, CAPAN-1, 240 h): 101 nM | IC50 ([2]; Homo sapiens, SW-620, 120 h): 1.3 nM | EC50 ([3]; Homo sapiens, T47D, 24 h): 2.8 nM

O=C(c1cc(Cn2c3c(c(=O)[nH]c2=O)CCCC3)ccc1F)N1CCN(C(=O)C2CCC2)CC1 [Example 22, 1-(4-Fluoro-3-(4-(cyclobutylcarbonyl)piperazine-1-carbonyl)benzyl)-5,6,7,8-tetrahydroquinazoline-2,4(1H,3H)-dione]
IC50 ([1]; Homo sapiens, CAPAN-1, 240 h): 117 nM | IC50 ([2]; Homo sapiens, SW-620, 120 h): 1.7 nM | EC50 ([3]; Homo sapiens, T47D, 24 h): 2.8 nM

O=C(c1cc(Cn2c3c(c(=O)[nH]c2=O)CCCC3)ccc1F)N1CCN(c2nccs2)CC1 [Example 23, 1-(4-Fluoro-3-(4-(thiazol-2-yl)piperazine-1-carbonyl)benzyl)-5,6,7,8-tetrahydroquinazoline-2,4(1H,3H)-dione]
IC50 ([1]; Homo sapiens, CAPAN-1, 240 h): 49 nM | IC50 ([2]; Homo sapiens, SW-620, 120 h): 1.5 nM | EC50 ([3]; Homo sapiens, T47D, 24 h): 1.6 nM

O=C(c1cc(Cn2c3c(c(=O)[nH]c2=O)CCCC3)ccc1F)N1CCN(C(=O)C2CCCCC2)CC1 [Example 24, 1-(4-Fluoro-3-(4-(cyclohexylcarbonyl)piperazine-1-carbonyl)benzyl)-5,6,7,8-tetrahydroquinazoline-2,4(1H,3H)-dione]
IC50 ([1]; Homo sapiens, CAPAN-1, 240 h): 58 nM | IC50 ([2]; Homo sapiens, SW-620, 120 h): 3.6 nM | EC50 ([3]; Homo sapiens, T47D, 24 h): 9.9 nM

O=C(c1cc(Cn2c3c(c(=O)[nH]c2=O)CCCC3)ccc1F)N1CCN(C(=O)C2CCCC2)CC1 [Example 25, 1-(4-Fluoro-3-(4-(cyclopentylcarbonyl)piperazine-1-carbonyl)benzyl)-5,6,7,8-tetrahydroquinazoline-2,4(1H,3H)-dione]
IC50 ([1]; Homo sapiens, CAPAN-1, 240 h): 69 nM | IC50 ([2]; Homo sapiens, SW-620, 120 h): 1.9 nM | EC50 ([3]; Homo sapiens, T47D, 24 h): 6.2 nM

O=C(c1cc(Cn2c3c(c(=O)[nH]c2=O)CCCC3)ccc1F)N1CCN(c2ccccn2)CC1 [Example 26, 1-(4-Fluoro-3-(4-(pyridin-2-yl)piperazine-1-carbonyl)benzyl)-5,6,7,8-tetrahydroquinazoline-2,4(1H,3H)-dione]
IC50 ([1]; Homo sapiens, CAPAN-1, 240 h): 93 nM | IC50 ([2]; Homo sapiens, SW-620, 120 h): 2.3 nM | EC50 ([3]; Homo sapiens, T47D, 24 h): 5.6 nM

O=C(c1ccco1)N1CCN(C(=O)c2cc(Cn3c4c(c(=O)[nH]c3=O)CCCC4)ccc2F)CC1 [Example 27, 1-(4-Fluoro-3-(4-(furan-2-carbonyl)piperazine-1-carbonyl)benzyl)-5,6,7,8-tetrahydroquinazoline-2,4(1H,3H)-dione]
IC50 ([1]; Homo sapiens, CAPAN-1, 240 h): 81 nM | IC50 ([2]; Homo sapiens, SW-620, 120 h): 9.7 nM | EC50 ([3]; Homo sapiens, T47D, 24 h): 58 nM

O=C(c1cc(Cn2c3c(c(=O)[nH]c2=O)CCCC3)ccc1F)N1CCN(c2cnccn2)CC1 [Example 28, 1-(4-Fluoro-3-(4-(pyrazin-2-yl)piperazine-1-carbonyl)benzyl)-5,6,7,8-tetrahydroquinazoline-2,4(1H,3H)-dione]
IC50 ([1]; Homo sapiens, CAPAN-1, 240 h): 297 nM | IC50 ([2]; Homo sapiens, SW-620, 120 h): 4.9 nM | EC50 ([3]; Homo sapiens, T47D, 24 h): 14 nM

O=C(c1cc(Cn2c3c(c(=O)[nH]c2=O)CCCC3)ccc1F)N1CCN(C2CCCCC2)CC1 [Example 30, 1-(4-Fluoro-3-(4-cyclohexylpiperazine-1-carbonyl)benzyl)-5,6,7,8-tetrahydroquinazoline-2,4(1H,3H)-dione]
IC50 ([1]; Homo sapiens, CAPAN-1, 240 h): 1240 nM | IC50 ([2]; Homo sapiens, SW-620, 120 h): 12 nM | EC50 ([3]; Homo sapiens, T47D, 24 h): 32 nM

O=C(c1cc(Cn2c3c(c(=O)[nH]c2=O)CCCC3)ccc1F)N1CCN(c2ccccc2)CC1 [Example 33, 1-(4-Fluoro-3-(4-phenylpiperazine-1-carbonyl)benzyl)-5,6,7,8-tetrahydroquinazoline-2,4(1H,3H)-dione]
IC50 ([1]; Homo sapiens, CAPAN-1, 240 h): 3650 nM | IC50 ([2]; Homo sapiens, SW-620, 120 h): 7.6 nM | EC50 ([3]; Homo sapiens, T47D, 24 h): 187 nM

O=C(c1ccoc1)N1CCN(C(=O)c2cc(Cn3c4c(c(=O)[nH]c3=O)CCCC4)ccc2F)CC1 [Example 35, 1-(4-Fluoro-3-(4-(furan-3-carbonyl)piperazine-1-carbonyl)benzyl)-5,6,7,8-tetrahydroquinazoline-2,4(1H,3H)-dione]
IC50 ([1]; Homo sapiens, CAPAN-1, 240 h): 285 nM | IC50 ([2]; Homo sapiens, SW-620, 120 h): 4 nM | EC50 ([3]; Homo sapiens, T47D, 24 h): 12 nM

O=C(c1ccsc1)N1CCN(C(=O)c2cc(Cn3c4c(c(=O)[nH]c3=O)CCCC4)ccc2F)CC1 [Example 36, 1-(4-Fluoro-3-(4-(thiophene-3-carbonyl)piperazine-1-carbonyl)benzyl)-5,6,7,8-tetrahydroquinazoline-2,4(1H,3H)-dione]
IC50 ([1]; Homo sapiens, CAPAN-1, 240 h): 221 nM | IC50 ([2]; Homo sapiens, SW-620, 120 h): 3.4 nM | EC50 ([3]; Homo sapiens, T47D, 24 h): 13 nM

O=C(c1cc(Cn2c3c(c(=O)[nH]c2=O)CCCC3)ccc1F)N1CCN(CC2CCCCC2)CC1 [Example 38, 1-(4-Fluoro-3-(4-(cyclohexylmethyl)piperazine-1-carbonyl)benzyl)-5,6,7,8-tetrahydroquinazoline-2,4(1H,3H)-dione]
IC50 ([1]; Homo sapiens, CAPAN-1, 240 h): 2270 nM | IC50 ([2]; Homo sapiens, SW-620, 120 h): 10 nM | EC50 ([3]; Homo sapiens, T47D, 24 h): 25 nM

O=C(c1cc(Cn2c3c(c(=O)[nH]c2=O)CCCC3)ccc1F)N1CCN(C(=O)C2CCCO2)CC1 (stereo not drawn) [Example 39, 1-(4-Fluoro-3-(4-(tetrahydrofuran-2-carbonyl)piperazine-1-carbonyl)benzyl)-5,6,7,8-tetrahydroquinazoline-2,4(1H,3H)-dione]
IC50 ([1]; Homo sapiens, CAPAN-1, 240 h): 152 nM | IC50 ([2]; Homo sapiens, SW-620, 120 h): 15 nM | EC50 ([3]; Homo sapiens, T47D, 24 h): 32 nM

O=C(c1ccc(F)c(Cn2c3c(c(=O)[nH]c2=O)CCCC3)c1)N1CCN(c2ncccn2)CC1 [Example 41]
IC50 [1, 4]: 19 nM | IC50 [2, 5]: 4.1 nM | EC50 [3, 6]: 2.2 nM

O=C(c1ccc(F)c(Cn2c3c(c(=O)[nH]c2=O)CCCC3)c1)N1CCN(C(=O)C2CCCC2)CC1 [Example 42, 1-(6-Fluoro-3-(4-(cyclopentylcarbonyl)piperazine-1-carbonyl)benzyl)-5,6,7,8-tetrahydroquinazoline-2,4(1H,3H)-dione]
IC50 ([1]; Homo sapiens, CAPAN-1, 240 h): 146 nM | IC50 ([2]; Homo sapiens, SW-620, 120 h): 4.8 nM | EC50 ([3]; Homo sapiens, T47D, 24 h): 4 nM

O=C(c1ccsc1)N1CCN(C(=O)c2ccc(F)c(Cn3c4c(c(=O)[nH]c3=O)CCCC4)c2)CC1 [Example 46, 1-(6-Fluoro-3-(4-(thiophene-3-carbonyl)piperazine-1-carbonyl)benzyl)-5,6,7,8-tetrahydroquinazoline-2,4(1H,3H)-dione]
IC50 ([1]; Homo sapiens, CAPAN-1, 240 h): 703 nM | IC50 ([2]; Homo sapiens, SW-620, 120 h): 10 nM | EC50 ([3]; Homo sapiens, T47D, 24 h): 13 nM

O=C(c1ccc(F)c(Cn2c3c(c(=O)[nH]c2=O)CCCC3)c1)N1CCN(c2ccccn2)CC1 [Example 47, 1-(6-Fluoro-3-(4-(pyridin-2-yl)piperazine-1-carbonyl)benzyl)-5,6,7,8-tetrahydroquinazoline-2,4(1H,3H)-dione]
IC50 ([1]; Homo sapiens, CAPAN-1, 240 h): 116 nM | IC50 ([2]; Homo sapiens, SW-620, 120 h): 4.6 nM | EC50 ([3]; Homo sapiens, T47D, 24 h): 6.4 nM

O=C(c1ccc(F)c(Cn2c3c(c(=O)[nH]c2=O)CCCC3)c1)N1CCN(C(=O)C2CCCCC2)CC1 [Example 49, 1-(6-Fluoro-3-(4-(cyclohexylcarbonyl)piperazine-1-carbonyl)benzyl)-5,6,7,8-tetrahydroquinazoline-2,4(1H,3H)-dione]
IC50 ([1]; Homo sapiens, CAPAN-1, 240 h): 123 nM | IC50 ([2]; Homo sapiens, SW-620, 120 h): 5.3 nM | EC50 ([3]; Homo sapiens, T47D, 24 h): 7.2 nM

O=C(c1ccc(F)c(Cn2c3c(c(=O)[nH]c2=O)CCCC3)c1)N1CCN(C(=O)C2CCC2)CC1 [Example 50, 1-(6-Fluoro-3-(4-(cyclobutylcarbonyl)piperazine-1-carbonyl)benzyl)-5,6,7,8-tetrahydroquinazoline-2,4(1H,3H)-dione]
IC50 ([1]; Homo sapiens, CAPAN-1, 240 h): 1000 nM | IC50 ([2]; Homo sapiens, SW-620, 120 h): 16 nM | EC50 ([3]; Homo sapiens, T47D, 24 h): 12 nM

O=C(c1ccc(F)c(Cn2c3c(c(=O)[nH]c2=O)CCCC3)c1)N1CCN(c2nccs2)CC1 [Example 51, 1-(6-Fluoro-3-(4-(thiazol-2-yl)piperazine-1-carbonyl)benzyl)-5,6,7,8-tetrahydroquinazoline-2,4(1H,3H)-dione]
IC50 ([1]; Homo sapiens, CAPAN-1, 240 h): 134 nM | IC50 ([2]; Homo sapiens, SW-620, 120 h): 13 nM | EC50 ([3]; Homo sapiens, T47D, 24 h): 11 nM

O=C(c1cc(Cn2c3c(c(=O)[nH]c2=O)CCCC3)ccc1F)N1CCN(C(=O)C2CCOCC2)CC1 [Example 53, 1-(4-Fluoro-3-(4-(tetrahydro-2H-pyran-4-carbonyl)piperazine-1-carbonyl)benzyl)-5,6,7,8-tetraquinazoline-2,4(1H,3H)-dione]
IC50 [1, 4]: 272 nM | IC50 [2, 5]: 61 nM | EC50 [3, 6]: 98 nM
